pIC50: −log10 of the molar value.
Columns and labels:
[1] = biological target: T1, ALK2 R206H (GST-tagged mutant ALK2) (Homo sapiens, UniProt Q04771, R206H); assay: ALK binding assay (LANTHASCREEN TR-FRET competitive binding, displacement of Kinase Tracer 178); conditions: ALK2 R206H, LANTHASCREEN TR-FRET competitive binding; read-out: Binding Assay (IC50)
T1 construct: purchased Carna Bioscience or ThermoFisher 09-148 or PV6232
T1 sequence (Q04771 21-509 R206H): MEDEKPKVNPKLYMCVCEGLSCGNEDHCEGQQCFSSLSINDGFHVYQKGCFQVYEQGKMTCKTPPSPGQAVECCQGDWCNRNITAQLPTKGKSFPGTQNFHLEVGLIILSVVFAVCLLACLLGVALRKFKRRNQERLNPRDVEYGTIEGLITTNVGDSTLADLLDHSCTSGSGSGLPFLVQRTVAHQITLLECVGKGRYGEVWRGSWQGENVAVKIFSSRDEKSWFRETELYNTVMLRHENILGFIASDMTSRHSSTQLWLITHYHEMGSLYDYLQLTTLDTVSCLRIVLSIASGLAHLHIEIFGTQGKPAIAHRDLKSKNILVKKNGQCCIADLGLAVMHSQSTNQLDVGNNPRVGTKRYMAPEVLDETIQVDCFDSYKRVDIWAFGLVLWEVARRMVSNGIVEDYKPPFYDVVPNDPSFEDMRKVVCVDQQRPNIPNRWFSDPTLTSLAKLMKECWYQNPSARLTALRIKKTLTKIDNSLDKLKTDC

human ALK2 R206H = biological target: T2, human ALK2 R206H (Homo sapiens, UniProt Q04771, R206H); assay: Cell-based ALK2-R206H cell activity assay (Smad1-Ser463/Ser465 phosphorylation by AlphaLISA in HEK293-ALK2-R206H cells); conditions: read-out: Cell Line (Cell Assay IC50)
T2 construct: expressed in transfected cells; host or cells: HEK293 (ATCC CRL1573), lentivirus transduction, blasticidin selection
T2 sequence (Q04771 21-509 R206H): T1 sequence (Q04771 21-509 R206H)
Procedure, shortened: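 Stable HEK293 cells expressing C-terminally FLAG-tagged human ALK2 R206H (lentiviral, blasticidin-selected) were treated with compounds in 10-point, 3-fold dilutions from 10 μM or 1 μM top, in duplicate. Smad1 Ser463/Ser465 phosphorylation was read by AlphaLISA.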

pIC50 [1]	pIC50 (human ALK2 R206H)	Compound
> 8.00	6.30 to 7.00	CC(C)N1CCC(c2ccc(-c3cc4c(N5CCN(C(=O)NCC6COC6)CC5)ccnn4c3)cc2)CC1 [Compound 661]
> 8.00	> 7.00	CC(C)[C@@H](C)NC(=O)N1CCN(c2ccnn3cc(-c4ccc(C5CCN(C(C)C)CC5)cc4)cc23)CC1 [Compound 663]
> 8.00	6.30 to 7.00	CC(C)N1CCC(c2ccc(-c3cc4c(N5CCN(C(=O)NCC(C)(C)C)CC5)ccnn4c3)cc2)CC1 [Compound 664]
> 8.00	> 7.00	CC(C)N1CCC(c2ccc(-c3cc4c(N5CCN(C(=O)OCC6COC6)CC5)ccnn4c3)cc2)CC1 [Compound 665]
> 8.00	> 7.00	CC(C)N1CCC(c2ccc(-c3cc4c(N5CCN(C(=O)O[C@@H]6CCOC6)CC5)ccnn4c3)cc2)CC1 [Compound 666]
> 8.00	> 7.00	CC(C)N1CCC(c2ccc(-c3cc4c(N5CCN(C(=O)O[C@H]6CCOC6)CC5)ccnn4c3)cc2)CC1 [Compound 667]
> 8.00	> 7.00	CC(C)N1CCC(c2ccc(-c3cc4c(N5CCN(C(=O)OC6COC6)[C@H](C)C5)ccnn4c3)cc2)CC1 [Compound 669]
> 8.00	> 7.00	CC(C)NC(=O)N1CCN(c2ccnn3cc(-c4ccc([C@]5(C)CN(C(C)C)CCN5C)cc4)cc23)CC1 [Compound 671]
> 8.00	> 7.00	CC(C)NC(=O)N1CCN(c2ccnn3cc(-c4ccc([C@@]5(C)CN(C(C)C)CCN5C)cc4)cc23)CC1 [Compound 672]
> 8.00	> 7.00	CCNC(=O)N1CCN(c2ccnn3cc(-c4ccc([C@]5(OCC)CCCN(C(C)C)C5)cc4)cc23)CC1 [Compound 673]
> 8.00	> 7.00	CCNC(=O)N1CCN(c2ccnn3cc(-c4ccc([C@@]5(OCC)CCCN(C(C)C)C5)cc4)cc23)CC1 [Compound 674]
> 8.00	> 7.00	CCO[C@]1(c2ccc(-c3cc4c(N5CCN(C(=O)NC(C)C)CC5)ccnn4c3)cc2)CCN(C(C)C)C1 [Compound 676]
> 8.00	> 7.00	CCO[C@@]1(c2ccc(-c3cc4c(N5CCN(C(=O)NC(C)C)CC5)ccnn4c3)cc2)CCN(C(C)C)C1 [Compound 677]
> 8.00	> 7.00	CC(C)N1CC[C@H](O)[C@@H](c2ccc(-c3cc4c(N5CCN(C(=O)OC6COC6)CC5)ccnn4c3)cc2)C1 [Compound 678]
> 8.00	> 7.00	CC(C)N1CC[C@@H](O)[C@H](c2ccc(-c3cc4c(N5CCN(C(=O)OC6COC6)CC5)ccnn4c3)cc2)C1 [Compound 679]

Compound	pIC50 [1]	pIC50 (human ALK2 R206H)
COC1(c2ccc(-c3cc4c(N5CCN(C(=O)C6CC6)[C@H](C)C5)ccnn4c3)cc2)CCN(C(C)C)CC1 [Compound 659]	> 8.00	> 7.00
COC1(c2ccc(-c3cc4c(N5CCN(C(=O)C6CC6)CC5)ccnn4c3)nc2)CCN(C2COC2)CC1 [Compound 660]	> 8.00	> 7.00
CCOC1(c2ccc(-c3cc4c(N5CCN(C(=O)C6CC6)CC5)ccnn4c3)nc2)CCN(C(C)C)CC1 [Compound 662]	> 8.00	> 7.00
CC(C)N1CCC(C)(c2ccc(-c3cc4c(N5CCN(C(=O)OC6COC6)CC5)ccnn4c3)cc2)CC1 [Compound 668]	> 8.00	6.30 to 7.00
CCNC(=O)N1CCN(c2ccnn3cc(-c4ccc(C5(OCC)CCN(C(C)C)CC5)cc4)cc23)CC1 [Compound 675]	> 8.00	> 7.00
COC1(c2ccc(-c3cc4c(N5CCN(C(=O)C6CC6)CC5)ccnn4c3)cc2F)CCN(C(C)C)CC1 [Compound 680]	> 8.00	> 7.00
COC1(c2ccc(-c3cc4c(N5CCN(C(=O)[C@H]6C[C@@H]6F)CC5)ccnn4c3)cc2)CCN(C(C)C)CC1 [Compound 681]	> 8.00	> 7.00
COC1(c2ccc(-c3cc4c(N5CCN(C(=O)C6CC6)CC5)ccnn4c3)c(F)c2)CCN(C(C)C)CC1 [Compound 682]	> 8.00	> 7.00
